The conditions of data set [1]: Figure 1, literature compound, cited from earlier work.
The next data set addresses α-glucosidase. Conditions: Figure 1, literature compound; cited from earlier work.
Another data set relates to Vero cell line. The data set can be described thus: Cytotoxicity on Vero cell line (MTT). In kind it is cell-based, African green monkey. The following applies: Vero IC50 / MIC M. tuberculosis H37Rv.
Data set [2] is described as follows: Cytotoxicity on Vero cell line (MTT). In kind it is cell-based, African green monkey. The following applies: African green monkey, Vero cells (African green monkey kidney, ATCC CCL-81); MTT, 24 h.
Data set [3] has as its system Mycobacterium tuberculosis H37Rv (ATCC 27294). The data set can be described thus: microbe, parasite or virus in culture. Conditions: agar dilution SPOTi, read-out: MIC Against M. tuberculosis H37Rv. The class given is cell-based. Background: In agar dilution the substance is mixed into plates at graded concentrations.
The test system of data set [4] is 60 human cancer cell lines. In words: NCI-60 screen (SRB), whole panel. The class given is cell-based. Conditions: Homo sapiens; single dose 10 μM, mean over 60 cell lines; over 100% = cell death; read-out: Mean growth inhibition (GI) percentage.
In data set [5] the test system is Mycobacterium bovis BCG (ATCC 35734). In words: microbe, parasite or virus in culture. The following applies: for MIC: Mycobacterium tuberculosis variant bovis BCG, read-out: MIC Against M. bovis BCG; for MIC Against M. bovis BCG: agar dilution SPOTi. The class given is cell-based.
Data set [6] concerns M. tuberculosis H37Rv. The data set can be described thus: Checkerboard synergism assay. The class given is cell-based, Mycobacterium tuberculosis. Conditions: for MIC: Mycobacterium tuberculosis, H37RV, checkerboard, alone.
Protocol: The synergism assays were carried out in 96-well plates with Middlebrook 7H9 medium supplemented with OADC.
The test system of data set [7] is M. tuberculosis H37Rv. The data set can be described thus: Growth curves in liquid medium and re-plating (cidal or static). The following applies: for cidal or static effect: re-plating on solid media without compound, up to 10×MIC. In kind it is cell-based, Mycobacterium tuberculosis.
Where [8] appears, read: compound in combination with AMK.
Where [9] appears, read: compound in combination with INH.
[10] abbreviates: compound in combination with LVX.
Where [11] appears, read: compound in combination with RIF.
Setting [12] is: 10×MIC, 21 days, compared with day 0.
Where [13] appears, read: antibiotic in combination with 20a.
The mark [14] stands for this setting: antibiotic in combination with 20f.

We go through 11 compounds from paper PMC9604400, “Synthesis, Anticancer and Antitubercular Properties of New Chalcones and Their Nitrogen-Containing Five-Membered Heterocyclic Hybrids Bearing Sulfonamide Moiety” (International Journal of Molecular Sciences, 2022).

The term IC50 denotes the midpoint of a concentration-inhibition curve. One may read the melting point as the temperature of the solid-liquid transition. By inhibition is commonly meant the drop in the measured response relative to a control, in per cent.

In brackets after ≈: the same amount, converted by molar mass. Like-named read-outs stand apart in the source and are kept apart here. A value given as a limit tells only on which side of the number the result lay.

Regarding `Cc1ccc(S(=O)(=O)Nc2ccc(C(=O)/C=C/c3ccc(Br)cc3)cc2)cc1` [Compound 1], the LD50 in data set [1] was 220 µM.

Turning to `Cc1ccc(S(=O)(=O)Nc2ccc(C(=O)/C=C/c3ccc(O)c(O)c3)cc2)cc1` [Compound 2], the half-maximal inhibitory concentration (IC50) on α-glucosidase was 400 nM.

With `NS(=O)(=O)c1ccc(N2N=C(C(F)(F)F)CC2c2ccc(F)cc2F)cc1` (stereo not drawn) [Compound 4], the ED50 in data set [1] (test not given) was 7400 nM.

Compound `COc1cc(OC)c(S(N)(=O)=O)cc1C(=O)/C=C/c1ccc2c(c1)OCO2` [Compound 17f, (E)-5-(3-(Benzo[d][1,3]dioxol-5-yl)acryloyl)-2,4-dimethoxybenzenesulfonamide] registered a melting point of 257 to 258 °C. In addition, the “Selectivity Index (SI) (SI = IC50/MIC)” value in the data set with Vero cell line worked out at 0.07. In [2], this compound showed an IC50 at 24 h of 1700 ± 1740 nM. Moreover, in [3] (Mycobacterium tuberculosis), the MIC amounted to 25 µM (≈ 9.79 µg/mL). For the same compound, the inhibition at 10 µM in data set [4] turned out to be 10.1%. The MIC in data set [5] is greater than 25 µM.

Regarding `COc1ccc(C(=O)C=Cc2ccccc2)cc1S(=O)(=O)NNC(=O)c1ccncc1` [Compound 19a, 5-Cinnamoyl-N’-isonicotinoyl-2-methoxybenzenesulfonohydrazide], the melting point was in the range of 227 to 229 °C. In the data set with Vero cell line, the “Selectivity Index (SI) (SI = IC50/MIC)” value was found to be 0.28. The same compound registered an IC50 at 24 h in [2] of 6320 ± 820 nM. Moreover, the MIC in data set [3] (Mycobacterium tuberculosis) turned out to be 23 µM (≈ 10.1 µg/mL). Besides, in data set [4], the inhibition at 10 µM worked out at 3.63%. Also, in [5], the MIC is greater than 23 µM.

In turn, `COc1ccc(/C=C/C(=O)c2ccc(OC)c(S(=O)(=O)NNC(=O)c3ccncc3)c2)cc1` [Compound 19d, (E)-N’-Isonicotinoyl-2-methoxy-5-(3-(4-methoxyphenyl)acryloyl)benzenesulfonohydrazide] showed a melting point of 216 to 217 °C. The “Selectivity Index (SI) (SI = IC50/MIC)” value in the data set on Vero cell line was found to be 0.10. In addition, the IC50 at 24 h in data set [2] is 2190 ± 680 nM. Also, the MIC in data set [3] (Mycobacterium tuberculosis) was determined as 21 µM (≈ 9.82 µg/mL). Moreover, the MIC in data set [5] was greater than 21 µM.

Regarding `COc1cc(OC)c(S(=O)(=O)NNC(=O)c2ccncc2)cc1C(=O)C=Cc1ccccc1` [Compound 20a, 5-Cinnamoyl-N’-isonicotinoyl-2,4-dimethoxybenzenesulfonohydrazide], the melting point was 143 to 145 °C. The same compound came in with a half-inhibitory concentration (IC50) at 24 h in [2] of 6050 ± 1390 nM. The MIC in data set [3] (Mycobacterium tuberculosis) was 11 µM (≈ 5.14 µg/mL). Besides, the MIC in data set [3] is 11 µM (≈ 5.14 µg/mL). In the data set on M. tuberculosis H37Rv [6], the MIC stood at 5 µg/mL. Also, in the data set on M. tuberculosis H37Rv [6] (setting [8]), the “FICI Index” value was determined as 2.00 and the “MIC Combination” value was found to be 5 µg/mL. Further, in the data set with M. tuberculosis H37Rv [6] (setting [9]), the “FICI Index” value is 0.75 and the “MIC Combination” value came out at 1.25 µg/mL. In the data set with M. tuberculosis H37Rv [6] (setting [10]), the “FICI Index” value is on record as 1.25 and the “MIC Combination” value was found to be 1.25 µg/mL. Further, in the data set with M. tuberculosis H37Rv [6] (setting [11]), the “FICI Index” value is recorded as 1.25 and the “MIC Combination” value amounted to 5 µg/mL. Moreover, the inhibition at 10 µM in data set [4] came to 19%. In data set [5], the MIC came out at 11 µM (≈ 5.14 µg/mL) and the “MIC Against M. bovis BCG” value was determined as 11 µM (≈ 5.14 µg/mL).

Take `COc1ccc(/C=C/C(=O)c2cc(S(=O)(=O)NNC(=O)c3ccncc3)c(OC)cc2OC)cc1` [Compound 20d, (E)-N’-Isonicotinoyl-2,4-dimethoxy-5-(3-(4-methoxyphenyl)acryloyl)benzenesulfonohydrazide]: the melting point fell in the range of 214 to 217 °C. Further, the “Selectivity Index (SI) (SI = IC50/MIC)” value in the data set on Vero cell line is given as 0.05. Moreover, in [2], the IC50 at 24 h came to 1000 ± 1200 nM. Further, in data set [3] (Mycobacterium tuberculosis), the MIC is 20 µM (≈ 9.95 µg/mL). The MIC in data set [5] is greater than 20 µM.

For `COc1cc(OC)c(S(=O)(=O)NNC(=O)c2ccncc2)cc1C(=O)/C=C/c1cc(OC)c(OC)c(OC)c1` [Compound 20e, (E)-N’-Isonicotinoyl-2,4-dimethoxy-5-(3-(3,4,5-trimethoxyphenyl)acryloyl)benzenesulfonohydrazide], the melting point lay within 162 to 165 °C. For the same compound, in the data set with Vero cell line, the “Selectivity Index (SI) (SI = IC50/MIC)” value was 0.03. In data set [2], this compound gave an IC50 at 24 h of 260 ± 690 nM. Further, the MIC in [3] (Mycobacterium tuberculosis) turned out to be 9 µM (≈ 5.02 µg/mL). Also, in the data set on M. tuberculosis H37Rv [7] (1×MIC, after 21 days), the “growth of M. tuberculosis H37Rv in liquid medium (optical density)” value (“growth of M. tuberculosis H37Rv” for short) is listed as “moderate growth”. Besides, in the data set with M. tuberculosis H37Rv [7] (setting [12]), the “growth of M. tuberculosis H37Rv” value is reported as “modest growth”. Besides, in the data set on M. tuberculosis H37Rv [7], the “cidal or static effect” value is recorded as “bacteriostatic”. In addition, in data set [5], the MIC was determined as 9 µM (≈ 5.02 µg/mL) and the “MIC Against M. bovis BCG” value was 9.0 µM (≈ 5.02 µg/mL).

Compound `COc1cc(OC)c(S(=O)(=O)NNC(=O)c2ccncc2)cc1C(=O)/C=C/c1ccc2c(c1)OCO2` [Compound 20f, (E)-5-(3-(Benzo[d][1,3]dioxol-5-yl)acryloyl)-N’-isonicotinoyl-2,4-dimethoxybenzenesulfonohydrazide] had a melting point of 150 to 152 °C. The “Selectivity Index (SI) (SI = IC50/MIC)” value in the data set on Vero cell line is reported as 0.26. This compound came in with a half-inhibitory concentration (IC50) at 24 h in data set [2] of 2550 ± 930 nM. Moreover, in data set [3] (Mycobacterium tuberculosis), the MIC came out at 9.8 µM (≈ 5.01 µg/mL). Moreover, the “growth of M. tuberculosis H37Rv” value in the data set on M. tuberculosis H37Rv [7] (1×MIC, after 21 days) was “moderate growth”. Besides, in the data set on M. tuberculosis H37Rv [7] (setting [12]), the “growth of M. tuberculosis H37Rv” value was “no significant growth”. Moreover, the “cidal or static effect” value in the data set on M. tuberculosis H37Rv [7] was “bacteriostatic”. For the same compound, in the data set on M. tuberculosis H37Rv [6], the MIC amounted to 5 µg/mL. Also, in the data set on M. tuberculosis H37Rv [6] (setting [8]), the “FICI Index” value amounted to 2.00 and the “MIC Combination” value was 5 µg/mL. Further, in the data set on M. tuberculosis H37Rv [6] (setting [9]), the “FICI Index” value amounted to 1.00 and the “MIC Combination” value is 2.5 µg/mL. Moreover, in the data set on M. tuberculosis H37Rv [6] (setting [10]), the “FICI Index” value was determined as 1.00 and the “MIC Combination” value turned out to be 2.5 µg/mL. Also, the “MIC Combination” value in the data set with M. tuberculosis H37Rv [6] (setting [11]) was 1.25 µg/mL. Also, the “interaction (from FICI)” value in the data set on M. tuberculosis H37Rv [6] (in combination with rifampicin) is “synergism”. Moreover, in data set [4], the inhibition at 10 µM is 4.19%. Further, the MIC in [5] was found to be 20 µM (≈ 10.2 µg/mL).

Consider `NNC(=O)c1ccncc1` [Isoniazid, isoniazid, reference compound], for which the MIC in [3] (Mycobacterium tuberculosis) turned out to be 0.36 µM (≈ 0.0494 µg/mL); in the data set on M. tuberculosis H37Rv [6], 0.012 µg/mL; in data set [5], 0.36 µM (≈ 0.0494 µg/mL). Moreover, the “FICI Index” value in the data set with M. tuberculosis H37Rv [6] (setting [13]) is on record as 0.75; in the data set with M. tuberculosis H37Rv [6] (setting [14]), 1.00. The “MIC Combination” value in the data set on M. tuberculosis H37Rv [6] (setting [13]) and in the data set with M. tuberculosis H37Rv [6] (setting [14]) was 0.006 µg/mL each time.
